Laboratory results taken from patent publication US20250255856A1, “THERAPEUTIC COMPOSITIONS WITH IMINO SUGARS FOR THE TREATMENT OF DISEASES WITH ACCUMULATION OF HEPARAN SULFATE” (priority 2022, published 2025).
Counter-ions that a name gives are not always drawn.

Experiments:
[1] = test system: NAGLU-silenced clone (cl5) of human neuroblastoma cell line SK-NBE; experiment: Lamp1 immunofluorescence (lysosomal accumulation) in NAGLU-silenced SK-NBE clone, Sanfilippo B model; type: cell-based; settings: 48 hours; for Cells positive for Lamp1 (%) / Relative Lamp1 fluorescence intensity: cl5 clone, 20 μM; for Effect on lysosomal enlargement and accumulation (lysosomal phenotype), in words: clone 5, 20 μM
Description: (§1) To study the effects of the compounds on the lysosomal dysfunctions in a neuronal model of Sanfilippo B disease (MPS IIIB), we recently generated stable clones of the human neuroblastoma cell line SK-NBE silenced for the NAGLU gene causative of MPS IIIB [De Pasquale V, et al. (2021). Biochim Biophys Acta Mol Cell Res. 1868, 119113.]. Mimicking the features of Sanfilippo B disease, silencing of NAGLU causes accumulation of heparan sulfate and accumulation of lysosomes in the cytoplasm of stable SK-NBE clones compared to the control (WT) clone.
(§2) Therefore, NAGLU-silenced clone (c15) and control clone (WT) were selected to test the effect of L-deoxyminosugars (L-DNJ, L-NBDNJ, L-NNDNJ, L-HPDNJ, L-NPDNJ, L-AMPDNM and L-MONDNJ) in the hydrochloride form on the lysosomal phenotype of our cell model of Sanfilippo B (MPS IIIB).
(§3) Clone 5 was cultured in the presence of 20 μM of each L-deoxyminosugar under normal growth conditions and after 48 hours the lysosomal accumulation was evaluated with immunofluorescence technique by using a specific antibody against Lamp1 (lysosomal marker). […] Furthermore, upon treatment with the active L-deoxyminosugar the lysosomes are no longer concentrated in the perinuclear region of the cells, as occurs in several lysosomal diseases, but they are physiologically distributed throughout the cytoplasm.

[2] = test system: control clone (WT) of human neuroblastoma cell line SK-NBE; experiment: Lamp1 immunofluorescence in control (WT) SK-NBE clone; type: cell-based; settings: 20 μM, 48 hours
Description: as §1, §2, §3

[3] = test system: NAGLU-silenced clone (cl5) of human neuroblastoma cell line SK-NBE; experiment: Heparan sulfate (HS) immunofluorescence in NAGLU-silenced SK-NBE clone, Sanfilippo B model; type: cell-based; settings: 48 hours; for Cells positive for HS (%) / Relative HS fluorescence intensity: cl5 clone, 20 μM; for Effect on HS staining / HS accumulation, in words: clone 5, 20 μM
Description: as §1
Clone 5 was grown in the presence of 20 μM of each L-iminosugar under normal growth conditions and after 48 hours the accumulation of heparan sulfate (HS) was evaluated by immunofluorescence staining for HS.

[4] = test system: control clone (WT) of human neuroblastoma cell line SK-NBE; experiment: Heparan sulfate (HS) immunofluorescence in control (WT) SK-NBE clone; type: cell-based; settings: 20 μM, 48 hours
[5] = test system: human adult dermal fibroblasts HDFa; experiment: HS and Lamp1 immunofluorescence in control fibroblasts HDFa; type: cell-based; settings: 20 μM, 48 hours
Method: (§4) To verify whether the selected iminosugars could exert the same effects also on the fibroblasts of patients affected by Sanfilippo disease, human adult dermal fibroblasts HDFa (purchased from Sigma-Aldrich) were used as control, and fibroblasts of patients affected by Sanfilippo A and B (MPS IIIA and IIIB) were used as disease model.
(§5) Cells were cultured in the presence of the selected L-iminosugars at a dosage of 20 μM and after 48 hours were treated for HS and Lamp1 immunofluorescence. Treatment with L-iminosugars had no effect on control HDFa (Table 3).
(§6) Cells were grown in the presence of the iminosugars D-DNJ, D-NBDNJ, D-AMPDNM and D-MONDNJ at the dosage of 20 μM and after 48 hours were treated for HS and Lamp1 immunofluorescence. Treatment with D-iminosugars had no effect on HDFa and fibroblasts of patients affected by Sanfilippo A and B (MPS IIIA and MPS IIIB) both on HS and lysosome accumulation (Table 4).

[6] = test system: fibroblasts of patients affected by Sanfilippo A (MPS IIIA); experiment: HS and Lamp1 immunofluorescence in Sanfilippo A patient fibroblasts; type: cell-based, human; settings: 20 μM, 48 hours; for Relative fluorescence intensity compared to HDFa, HS / Relative fluorescence intensity compared to HDFa, Lamp1 / Cells positive for HS (%) / Cells positive for Lamp1 (%): MPS-IIIA fibroblasts; for Effect on HS and lysosome (Lamp1) accumulation, in words: Sanfilippo A (MPS IIIA) patient fibroblasts
Description: as §4
(§7) The human cell lines, fibroblasts, from patients with MPS (Sanfilippo disease) used in the examples were obtained from the G. Gaslini Institute of Genoa, “Cell Line and DNA Biobank from Patients Affected by Genetic Diseases”-Telethon Genetic Biobank Network—Telethon research service. These cells are classified with identification codes and by type of disease without allowing patient identification. Cells were collected from the patients, at the Gaslini Institute, with informed consent to the collection extended to conservation and its possible use, for diagnosis and/or research purposes according to current legislation as required by the guidelines followed by the Telethon biobanks. The Network operates abiding by the Italian Privacy and Data Protection Laws in force, including: Italian Data Protection Authority, Personal Data Protection Code, Legislative Decree no. 196, 30 Jun. 2003, published in Official Gazette No. 174 of the Italian Republic, 29 Jul. 2003; Italian Data Protection Authority, General Authorization for the processing of genetic data, 24 Jun. 2011, published in Official Gazette No. 159 of Italian Republic, 11 Jul. 2011.
as §5, §6

[7] = test system: fibroblasts of patients affected by Sanfilippo B (MPS IIIB); experiment: HS and Lamp1 immunofluorescence in Sanfilippo B patient fibroblasts; type: cell-based, human; settings: 20 μM, 48 hours; for Relative fluorescence intensity compared to HDFa, HS / Relative fluorescence intensity compared to HDFa, Lamp1 / Cells positive for HS (%) / Cells positive for Lamp1 (%): MPS-IIIB fibroblasts; for Effect on HS and lysosome (Lamp1) accumulation, in words: Sanfilippo B (MPS IIIB) patient fibroblasts
Description: as §4, §7, §5, §6

[8] = test system: HeLa tumor epithelial cells; experiment: HS immunostaining in HeLa cells; type: cell-based; settings: 48 hours
Method: To test whether treatment with the selected L-deoxyminosugars (L-DNJ, L-NBDNJ, L-AMPDNM and L-MONDNJ) could interfere with HS synthesis we selected a cell line not mutated for NAGLU and highly decorated by heparan sulfate on the cell membrane. For this purpose, HeLa tumor epithelial cells (purchased from ATCC) were cultured for 48 hours in the presence of the selected L-iminosugars and the amount of HS was evaluated by immunostaining.

[9] = test system: HeLa tumor epithelial cells; experiment: HeLa cell proliferation assay; type: cell-based; settings: after 48 hours
Method: Furthermore, treatment with the L-deoxyminosugars L-DNJ, L-NBDNJ, L-AMPDNM and L-MONDNJ caused a decrease of the number of HeLa cells after 48 hours as shown by the cell proliferation assay reported in Table 6.

[10] = test system: NAGLU-silenced clone (cl5) of human neuroblastoma cell line SK-NBE; experiment: Immunofluorescence against beta-amyloid peptide 1-42 in NAGLU-silenced SK-NBE clone; type: cell-based; settings: 20 μM, 48 hours
Method: The clone (c15) stably silenced for NAGLU, the causative gene of MPS IIIB, is able to mimic the features of neurodegenerative diseases as it accumulates beta-amyloid fibers in the cytoplasm. In fact, Sanfilippo Syndrome is also defined as “childhood Alzheimer”.
The diseased clone (c15) was grown in the presence of L-DNJ, L-NBDNJ, L-AMPDNM and L-MONDNJ and the corresponding enantiomers D-DNJ, D-NBDNJ, D-AMPDNM and D-MONDNJ at a dosage of 20 μM and after 48 hours were processed by immunofluorescence against the beta-amyloid peptide 1-42. […] On contrary, treatment with the corresponding D-enantiomers has no effect on the reduction of the accumulation of amyloid fibers compared to the untreated clone (mock) (Table 7).

Row | SMILES | Cells positive for Lamp1 (%) [1] | Relative Lamp1 fluorescence intensity [1] | Effect on lysosomal enlargement and accumulation (lysosomal phenotype), in words [1] | Cells positive for Lamp1 (%) [2] | Relative Lamp1 fluorescence intensity [2] | Cells positive for HS (%) [3] | Relative HS fluorescence intensity [3] | Effect on HS staining / HS accumulation, in words [3] | Cells positive for HS (%) [4] | Relative HS fluorescence intensity [4] | Relative fluorescence intensity compared to HDFa, HS [5] | Relative fluorescence intensity compared to HDFa, Lamp1 [5] | Relative fluorescence intensity compared to HDFa, HS [6] | Relative fluorescence intensity compared to HDFa, Lamp1 [6] | Effect on HS and lysosome (Lamp1) accumulation, in words [6] | Relative fluorescence intensity compared to HDFa, HS [7] | Relative fluorescence intensity compared to HDFa, Lamp1 [7] | Effect on HS and lysosome (Lamp1) accumulation, in words [7] | Effect on HS accumulation on the HeLa cell membrane, in words [8] | Cell number [9] | other results
1 | CCCCCCCCCOCCCCCN1C[C@@H](O)[C@H](O)[C@@H](O)[C@@H]1CO [L-NPDNJ•HCl] | 84% | 2.65 | did not show any activity | 3.7% | 1.10 | 97.5% | 3.65 | did not show any activity | 4.4% | 0.93 | 1.0 | 1.0 | 5.2 | 2.8 | did not show any activity | 5.9 | 3.3 | did not show any activity | did not show any activity | 4.7 · 10^5 | Relative HS fluorescence intensity [8]: 1.19
2 | CCCCCCCCCN1C[C@@H](O)[C@H](O)[C@@H](O)[C@@H]1CO [L-NNDNJ•HCl] | 85% | 2.70 | did not show any activity | 4.1% | 1.04 | 97.5% | 3.71 | did not show any activity | 4.1% | 0.94 | 1.0 | 1.0 | 4.9 | 3.0 | did not show any activity | 5.8 | 3.1 | did not show any activity | did not show any activity | 4.2 · 10^5 | Relative HS fluorescence intensity [8]: 0.88
3 | CCCCCCOCCCCCN1C[C@@H](O)[C@H](O)[C@@H](O)[C@@H]1CO [L-HPDNJ•HCl] | 87% | 2.10 | did not show any activity | 4.8% | 1.00 | 95.1% | 3.60 | did not show any activity | 2.4% | 0.95 | 1.0 | 1.0 | 5.4 | 3.1 | did not show any activity | 5.7 | 3.0 | did not show any activity | did not show any activity | 4.3 · 10^5 | Relative HS fluorescence intensity [8]: 0.95
4 | COCCCCCCCCCN1C[C@H](O)[C@@H](O)[C@H](O)[C@H]1CO.Cl [D-MONDNJ•HCl] |  |  |  |  |  |  |  |  |  |  |  |  |  |  |  |  |  |  |  | 5.0 · 10^5 | Cells positive for HS (%) [5]: 5.0%; Cells positive for Lamp1 (%) [5]: 5.3%; Cells positive for HS (%) [6]: 99.2%; Cells positive for Lamp1 (%) [6]: 95.2%; Cells positive for HS (%) [7]: 95.8%; Cells positive for Lamp1 (%) [7]: 93.8%; Relative amyloid fluorescence intensity [10]: 1.05
5 | OC[C@@H]1[C@@H](O)[C@H](O)[C@@H](O)CN1CCCCCOCC12CC3CC(CC(C3)C1)C2 [D-AMPDNM•HCl] |  |  |  |  |  |  |  |  |  |  |  |  |  |  |  |  |  |  |  | 5.1 · 10^5 | Cells positive for HS (%) [5]: 4.9%; Cells positive for Lamp1 (%) [5]: 5.1%; Cells positive for HS (%) [6]: 98.7%; Cells positive for Lamp1 (%) [6]: 96.8%; Cells positive for HS (%) [7]: 96.4%; Cells positive for Lamp1 (%) [7]: 94.6%; Relative amyloid fluorescence intensity [10]: 1.02
6 | OC[C@H]1NC[C@H](O)[C@@H](O)[C@@H]1O [D-DNJ•HCl, deoxynojirimycin] |  |  |  |  |  |  |  |  |  |  |  |  |  |  |  |  |  |  |  | 4.4 · 10^5 | Cells positive for HS (%) [5]: 2.4%; Cells positive for Lamp1 (%) [5]: 5.0%; Cells positive for HS (%) [6]: 97.3%; Cells positive for Lamp1 (%) [6]: 95.0%; Cells positive for HS (%) [7]: 94.9%; Cells positive for Lamp1 (%) [7]: 92.5%; Relative amyloid fluorescence intensity [10]: 0.99
